SMILES strings stand for the structures.

In this assay the target is T1, WNK2 (Homo sapiens, UniProt Q9Y3S1).
T1 construct: purchased Thermo Fisher Scientific (Life Technologies) SelectScreen
Description: SelectScreen LanthaScreen. It is filed as binding. The note with it: read-out: % displacement. An outline of the steps: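 Percent values come from Thermo SelectScreen profiling of NU5455, combining activity and binding assays. CSF1R was run in Z'LYTE format at Km app ATP, and CAMK1 in Adapta format with ATP listed at 10.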

T1 sequence (Q9Y3S1 whole entry): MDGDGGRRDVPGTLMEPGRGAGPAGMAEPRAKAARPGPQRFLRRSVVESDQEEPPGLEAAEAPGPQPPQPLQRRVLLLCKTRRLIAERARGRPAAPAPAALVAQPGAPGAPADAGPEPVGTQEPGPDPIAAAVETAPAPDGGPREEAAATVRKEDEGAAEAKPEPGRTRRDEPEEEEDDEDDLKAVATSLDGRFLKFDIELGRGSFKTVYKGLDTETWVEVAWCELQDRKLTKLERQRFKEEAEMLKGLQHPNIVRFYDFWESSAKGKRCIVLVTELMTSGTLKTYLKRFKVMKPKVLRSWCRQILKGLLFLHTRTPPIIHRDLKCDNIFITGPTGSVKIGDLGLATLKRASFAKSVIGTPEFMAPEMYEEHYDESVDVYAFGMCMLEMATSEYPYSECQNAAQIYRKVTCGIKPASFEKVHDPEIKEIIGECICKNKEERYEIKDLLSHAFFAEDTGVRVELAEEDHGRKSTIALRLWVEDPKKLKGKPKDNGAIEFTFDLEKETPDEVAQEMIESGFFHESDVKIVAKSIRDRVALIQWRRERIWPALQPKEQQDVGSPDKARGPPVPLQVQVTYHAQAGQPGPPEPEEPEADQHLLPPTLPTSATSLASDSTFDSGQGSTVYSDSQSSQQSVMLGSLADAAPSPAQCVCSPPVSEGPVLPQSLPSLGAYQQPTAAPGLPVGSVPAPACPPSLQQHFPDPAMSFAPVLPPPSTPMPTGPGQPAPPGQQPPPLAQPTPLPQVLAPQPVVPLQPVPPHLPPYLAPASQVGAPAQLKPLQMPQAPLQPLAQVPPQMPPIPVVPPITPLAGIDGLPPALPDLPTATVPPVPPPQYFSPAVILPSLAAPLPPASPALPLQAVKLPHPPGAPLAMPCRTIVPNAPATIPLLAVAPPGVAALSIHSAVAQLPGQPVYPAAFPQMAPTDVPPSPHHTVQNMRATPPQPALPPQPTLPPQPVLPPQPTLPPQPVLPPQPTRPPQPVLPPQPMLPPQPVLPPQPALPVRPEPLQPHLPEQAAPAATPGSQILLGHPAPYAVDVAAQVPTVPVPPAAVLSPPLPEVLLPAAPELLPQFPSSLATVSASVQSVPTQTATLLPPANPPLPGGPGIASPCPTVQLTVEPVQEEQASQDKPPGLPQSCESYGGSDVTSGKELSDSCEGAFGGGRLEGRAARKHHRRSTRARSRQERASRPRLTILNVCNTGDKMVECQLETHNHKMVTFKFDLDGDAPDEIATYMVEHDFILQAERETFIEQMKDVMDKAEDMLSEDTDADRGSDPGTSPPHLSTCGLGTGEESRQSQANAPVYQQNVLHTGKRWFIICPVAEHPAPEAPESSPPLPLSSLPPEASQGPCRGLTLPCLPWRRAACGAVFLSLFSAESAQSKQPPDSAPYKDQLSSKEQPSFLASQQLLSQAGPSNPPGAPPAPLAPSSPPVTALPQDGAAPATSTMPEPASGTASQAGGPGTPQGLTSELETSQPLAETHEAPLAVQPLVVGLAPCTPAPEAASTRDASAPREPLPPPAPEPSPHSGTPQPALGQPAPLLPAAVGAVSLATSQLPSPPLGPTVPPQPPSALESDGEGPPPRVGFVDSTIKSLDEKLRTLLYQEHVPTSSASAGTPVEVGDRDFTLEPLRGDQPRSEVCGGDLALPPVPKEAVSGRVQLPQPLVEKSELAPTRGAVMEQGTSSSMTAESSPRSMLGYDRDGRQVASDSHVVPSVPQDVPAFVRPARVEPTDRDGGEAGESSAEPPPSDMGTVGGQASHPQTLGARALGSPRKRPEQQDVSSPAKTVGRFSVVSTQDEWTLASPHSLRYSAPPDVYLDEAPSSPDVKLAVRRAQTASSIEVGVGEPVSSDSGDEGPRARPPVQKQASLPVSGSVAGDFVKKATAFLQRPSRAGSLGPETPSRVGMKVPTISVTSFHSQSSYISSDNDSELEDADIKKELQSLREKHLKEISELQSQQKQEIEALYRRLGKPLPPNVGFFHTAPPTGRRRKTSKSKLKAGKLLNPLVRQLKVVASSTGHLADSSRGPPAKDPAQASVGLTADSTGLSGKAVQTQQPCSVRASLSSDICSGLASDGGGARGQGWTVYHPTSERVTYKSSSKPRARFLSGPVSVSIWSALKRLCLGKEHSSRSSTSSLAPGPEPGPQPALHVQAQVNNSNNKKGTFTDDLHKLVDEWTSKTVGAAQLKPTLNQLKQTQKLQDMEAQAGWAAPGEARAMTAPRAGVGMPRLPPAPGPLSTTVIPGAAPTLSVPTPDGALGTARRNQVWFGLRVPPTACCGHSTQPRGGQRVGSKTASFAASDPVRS

Take `CN(C(=O)CN1CCOCC1)c1ccc2sc3c(-c4cccc5c(=O)cc(N6CC7CCC(C6)O7)oc45)cccc3c2c1` [NU5455]: the inhibition at 1 µM was -2.5%.
